Each compound was assayed against IGF1R (Homo sapiens, UniProt P08069) (assay: Cellular IGF-1R assay: inhibition of IGF1R phosphorylation in transduced Hek293 cells, capture ELISA (MSD)).
Assay type: cell-based
Set-up: Hek293 cells transduced with the corresponding receptors; expressed in transfected cells; host or cells: Hek293 (Hek293-IGF1R)
Protocol: In this assay the activity of the compounds of the invention against Insulin-like growth factor I (IGF-1) induced autophosphorylation of the IGF-IR is determined. The assay is conducted as follows: Compound-mediated inhibition of IGF1R and INSR phosphorylation in Hek293 cells transduced with the corresponding receptors is assessed in a capture ELISA format using the MSD (Meso Scale Discovery) platform. Briefly, 30′000 cells washed and diluted in starvation medium (DMEM high glucose supplemented with 0.1% BSA) are seeded in 90 μL per well into 96-well plates pre-coated with poly-D-lysine (0.1 mg/mL in PBS/0). After 24 h incubation at 37° C. and 5% CO2, dose-response effects are determined with 3-fold serial compound dilutions, starting at 10 μM. The final vehicle concentration is 0.1% DMSO in all wells. Following pre-incubation with compounds for 1 h, receptor phosphorylation is triggered by a 10 min exposure to 1.0 ng/μL IGF for Hek293-IGF1R cells, and 5.0 ng/μL insulin for Hek293-InsR cells. Cell lysis is achieved by addition of 80 μL MSD lysis buffer per aspirated well, incubation on ice for 20 min, and a freeze-thaw cycle. Target phosphorylation is then assessed by transferring volumes corresponding to approx. 6 μg Hek293-IGF1R or 0.6 μg Hek293-InsR lysates to MSD assay plates pre-coated with total-IGF1R or total-InsR Abs, respectively. After incubation for 2 h at rt, wells are exposed for 1 hr to a rabbit monoclonal antibody (CST #3024, 1:1000) detecting pIGF1R(Tyr1135/1136) as well as pINSR(Tyr1150/1151). Immune complexes are detected by a SULFO-Tag™-coupled anti-rabbit IgG antibody in the presence of 150 μL MSD read-buffer. Light emission at 620 nm triggered by application of electric current is recorded on a MSD SectorImager 6000. Acquired raw data (mean Ru-ECL units) are processed in an Excel analysis template. The plate blank (MSD lysis buffer) is subtracted from all data points. The effect of a particular test compound concentration on receptor phosphorylation is expressed relative to the window defined by ligand-stimulated vs unstimulated control cells (set as 100%). IC50 values [nM] are determined using 4-parametric curve-fitting (XLfit software, V4.3.2). Alternatively, the assay can be conducted with a slightly different format; Compound-mediated inhibition of IGF-1R and InsR phosphorylation in HEK293 cells overexpressing the corresponding receptors were assessed by quantitative Western blot using an Odyssey infrared imager as readout.
Compound-mediated inhibition of IGF1R and INSR phosphorylation in Hek293 cells transduced with the corresponding receptors is assessed in a capture ELISA format using the MSD (Meso Scale Discovery) platform. Briefly, 30′000 cells washed and diluted in starvation medium (DMEM high glucose supplemented with 0.1% BSA) are seeded in 90 μL per well into 96-well plates pre-coated with poly-D-lysine (0.1 mg/mL in PBS/O). After 24 h incubation at 37° C. and 5% CO2, dose-response effects are determined with 3-fold serial compound dilutions, starting at 10 μM. The final vehicle concentration is 0.1% DMSO in all wells. Following pre-incubation with compounds for 1 h, receptor phosphorylation is triggered by a 10 min exposure to 1.0 ng/μL IGF for Hek293-IGF1R cells, and 5.0 ng/μL insulin for Hek293-InsR cells. Cell lysis is achieved by addition of 80 μL MSD lysis buffer per aspirated well, incubation on ice for 20 min, and a freeze-thaw cycle. Target phosphorylation is then assessed by transferring volumes corresponding to approx. 6 μg Hek293-IGF1R or 0.6 μg Hek293-lnsR lysates to MSD assay plates pre-coated with total-IGF1R or total-lnsR Abs, respectively. After incubation for 2 h at rt, wells are exposed for 1 hr to a rabbit monoclonal antibody (CST #3024, 1:1000) detecting pIGF1R(Tyr1135/1136) as well as pINSR(Tyr1150/1151). Immune complexes are detected by a SULFO-Tag™-coupled anti-rabbit IgG antibody in the presence of 150 μL MSD read-buffer. […]

Chain of IGF1R (P08069 31-1367): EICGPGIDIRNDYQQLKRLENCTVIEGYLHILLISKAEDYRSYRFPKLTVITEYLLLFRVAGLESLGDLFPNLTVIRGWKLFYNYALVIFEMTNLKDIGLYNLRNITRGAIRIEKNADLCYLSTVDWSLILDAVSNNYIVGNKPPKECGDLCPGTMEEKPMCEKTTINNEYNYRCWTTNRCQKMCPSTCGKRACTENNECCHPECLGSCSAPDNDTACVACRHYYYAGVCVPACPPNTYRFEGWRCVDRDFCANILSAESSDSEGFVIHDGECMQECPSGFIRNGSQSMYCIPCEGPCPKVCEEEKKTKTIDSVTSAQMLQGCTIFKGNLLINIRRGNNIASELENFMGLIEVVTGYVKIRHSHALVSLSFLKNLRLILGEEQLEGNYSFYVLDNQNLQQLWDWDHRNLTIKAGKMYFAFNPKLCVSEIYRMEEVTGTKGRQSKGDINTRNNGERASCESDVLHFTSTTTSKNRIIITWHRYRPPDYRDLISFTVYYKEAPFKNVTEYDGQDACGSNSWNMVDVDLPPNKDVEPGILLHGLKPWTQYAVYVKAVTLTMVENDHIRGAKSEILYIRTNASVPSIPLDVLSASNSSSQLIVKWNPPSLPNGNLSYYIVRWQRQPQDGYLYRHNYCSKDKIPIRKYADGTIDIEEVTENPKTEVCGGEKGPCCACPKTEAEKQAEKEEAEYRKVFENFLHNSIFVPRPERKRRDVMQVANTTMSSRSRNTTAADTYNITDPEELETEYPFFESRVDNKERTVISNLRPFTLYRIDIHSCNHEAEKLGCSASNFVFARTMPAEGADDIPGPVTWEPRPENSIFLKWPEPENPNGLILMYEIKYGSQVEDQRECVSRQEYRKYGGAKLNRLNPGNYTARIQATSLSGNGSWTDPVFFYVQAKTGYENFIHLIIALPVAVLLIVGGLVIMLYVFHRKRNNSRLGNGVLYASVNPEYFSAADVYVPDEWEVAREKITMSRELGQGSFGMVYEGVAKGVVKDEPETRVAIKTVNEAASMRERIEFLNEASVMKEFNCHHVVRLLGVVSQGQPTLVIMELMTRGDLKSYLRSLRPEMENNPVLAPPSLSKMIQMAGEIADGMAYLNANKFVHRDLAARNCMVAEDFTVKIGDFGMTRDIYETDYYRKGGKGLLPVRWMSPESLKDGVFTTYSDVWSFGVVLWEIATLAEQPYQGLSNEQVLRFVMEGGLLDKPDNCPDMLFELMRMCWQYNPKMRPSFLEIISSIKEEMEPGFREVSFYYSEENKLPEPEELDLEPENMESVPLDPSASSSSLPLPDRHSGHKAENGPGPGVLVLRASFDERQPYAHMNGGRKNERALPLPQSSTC

SMILES	IC50
Nc1nccn2c1c(-c1ccc3c(c1)OC(c1ccccc1)CC3)nc2[C@H]1C[C@@H](Cn2ccnc2CO)C1 (relative stereo) [Example 39, (1-{cis-3-[8-Amino-1-(2-phenyl-chroman-7-yl)-imidazo[1,5-a]pyrazin-3-yl]-cyclobutylmethyl}-1H-imidazol-2-yl)-methanol]	218 nM
Nc1ncnc2c1c(-c1ccc3c(c1)OC1(CCCCC1)CC3)cn2[C@H]1C[C@@H](CN2CCS(=O)(=O)CC2)C1 [Example 53, 7-(cis-3-(1,1-dioxo-thiomorpholin-4-ylmethyl)cyclobutyl)-5-(spiro[chroman-2,1′-cyclohexane]-7-yl)-7H-pyrrolo[2,3-d]pyrimidin-4-amine]	202 nM
NC(=O)[C@@H]1CCCN1C[C@H]1C[C@@H](c2nc(-c3ccc4c(c3)OC(c3ccccc3)CC4)c3c(N)nccn32)C1 (mixture of isomers) [Example 4, 1-{cis-3,8-Amino-1-((R)-2-phenyl-chroman-7-yl)-imidazo[1,5-a]pyrazin-3-yl]-cyclobutylmethyl}-(S)-pyrrolidine-2-carboxylic acid amide and 1-{cis-3-[8-amino-1-((S)-2-phenyl-chroman-7-yl)-imidazo[1,5-a]pyrazin-3-yl]-cyclobutylmethyl}-(S)-pyrrolidine-2-carboxylic acid amide]	346 nM
Nc1ncnc2c1c(-c1ccc3c(c1)OC(c1ccccn1)CC3)cn2[C@H]1C[C@@H](CN2CC[S+]([O-])CC2)C1 (mixture of isomers) [Example 63, (±)-7-(cis-3-(1-oxo-thiomorpholin-4-ylmethyl)cyclobutyl)-5-(2-(pyridin-2-yl)chroman-7-yl)-7H-pyrrolo[2,3-d]pyrimidin-4-amine]	109 nM
Nc1ncnc2c1c(-c1ccc3c(c1)OC(c1ccccc1)CC3)cn2[C@H]1C[C@@H](CN2CCS(=O)(=O)CC2)C1 (mixture of isomers) [Example 6, (R,S)-7-[cis-3-(1,1-Dioxo-thiomorpholin-4-ylmethyl)-cyclobutyl]-5-(2-phenyl-chroman-7-yl)-7H-pyrrolo[2,3-d]pyrimidin-4-ylamine]	3 nM
Nc1ncnc2c1c(-c1ccc3c(c1)OC(c1ccccc1)CC3)cn2[C@H]1C[C@@H](CN2CCC[C@H]2CO)C1 (mixture of isomers) [Example 14, (1-{cis-3-[4-Amino-5-((R)-2-phenyl-chroman-7-yl)-pyrrolo[2,3-d]pyrimidin-7-yl]-cyclobutylmethyl}-(S)-pyrrolidin-2-yl)-methanol and (1-{cis-3-[4-amino-5-[((S)-2-phenyl-chroman-7-yl)-pyrrolo[2,3-d]pyrimidin-7-yl]-cyclobutylmethyl}-(S)-pyrrolidin-2-yl)-methanol]	< 5 nM
Nc1ncnc2c1c(-c1ccc3c(c1)OC(c1ccccc1)CC3)cn2[C@H]1CC[C@@H](NC(=O)C2CC2)CC1 (mixture of isomers) [Example 51, (±)-N-(cis-4-(4-amino-5-(2-phenylchroman-7-yl)-7H-pyrrolo[2,3-d]pyrimidin-7-yl)cyclohexyl)cyclopropanecarboxamide]	136 nM
Nc1nccn2c1c(-c1ccc3c(c1)OC(c1ccccc1)CC3)nc2[C@H]1C[C@@H](CO)C1 (mixture of isomers) [Example 3, (R,S)-{cis-3-[8-Amino-1-(2-phenyl-chroman-7-yl)-imidazo[1,5-a]pyrazin-3-yl]-cyclobutyl}-methanol]	76 nM
Nc1ncnc2c1c(-c1ccc3c(c1)O[C@@H](c1ccccc1)CC3)cn2[C@H]1C[C@@H](CN2CCS(=O)(=O)CC2)C1 [Example 24, (R)-7-[cis-3-(1,1-Dioxo-thiomorpholin-4-ylmethyl)-cyclobutyl]-5-(2-phenyl-chroman-7-yl)-7H-pyrrolo[2,3-d]pyrimidin-4-ylamine]	8 nM
Nc1ncnc2c1c(-c1ccc3c(c1)OC(c1ccccc1)CC3)cn2[C@H]1C[C@@H](O)C1 (relative stereo) [Example 48, cis-3-[4-Amino-5-(2-phenyl-chroman-7-yl)-pyrrolo[2,3-d]pyrimidin-7-yl]-cyclobutanol]	88 nM

The next lines start with the values.

IC50	SMILES
55 nM	Nc1ncnc2c1c(-c1ccc3c(c1)O[C@@H](c1ccccc1)CC3)cn2[C@H]1C[C@@H](CO)C1 [Example 12, {cis-3-[4-Amino-5-((R)-2-phenyl-chroman-7-yl)-pyrrolo[2,3-d]pyrimidin-7-yl]-cyclobutyl}-methanol]
55 nM	Nc1ncnc2c1c(-c1ccc3c(c1)OC(C1CCCO1)CC3)cn2C1CC(O)(CO)C1 (single isomer, unassigned) [Example 35]
525 nM	Nc1ncnc2c1c(-c1ccc3c(c1)OC(c1ccccc1)CC3)cn2[C@H]1C[C@@](O)(Cn2cnnc2)C1 (some centres unmarked) [Example 47, (E)-3-[4-Amino-5-(2-phenyl-chroman-7-yl)-pyrrolo[2,3-d]pyrimidin-7-yl]-1-[1,2,4]triazol-4-ylmethylcyclobutanol]
17 nM	Nc1ncnc2c1c(-c1ccc3c(c1)OC(C1CCCO1)CC3)cn2C1CC(CN2CC3CC2CS3(=O)=O)C1 (mixture of isomers) [Example 67, 7-[cis-3-((S,S)-2,2-dioxo-2λ6-thia-5-aza-bicyclo[2,2,1]hept-5-ylmethyl)-cyclobutyl]-5-[2-cis-(tetrahydro-furan-2-yl-chroman-7-yl)-7H-pyrrolo[2,3-d]pyrimidin-4-ylamine]
183 nM	Nc1ncnc2c1c(-c1ccc3c(c1)OC(C1CCCO1)CC3)cn2C1CC(O)(CO)C1 (single isomer, unassigned) [Example 32, (I)-(E)-3-{4-Amino-5-[2-(tetrahydro-furan-2-yl)-chroman-7-yl]-pyrrolo[2,3-d]pyrimidin-7-yl}-1-hydroxymethyl-cyclobutanol]
158 nM	Nc1ncnc2c1c(-c1ccc3c(c1)OC(c1ccccc1)CC3)cn2[C@H]1C[C@](O)(CO)C1 (mixture of isomers) [Example 9, (R,S)—(Z)-3-[4-amino-5-(2-phenyl-chroman-7-yl)-pyrrolo[2,3-d]pyrimidin-7-yl]-1-hydroxymethyl-cyclobutanol]
395 nM	Nc1ncnc2c1c(-c1ccc3c(c1)OC(C1CCCO1)CC3)cn2C1CC(O)(CO)C1 (single isomer, unassigned) [Example 33, (u)-(E)-3-{4-amino-5-[2-(tetrahydro-furan-2-yl)-chroman-7-yl]-pyrrolo[2,3-d]pyrimidin-7-yl}-1-hydroxymethyl-cyclobutanol]
30 to 103 nM	Nc1ncnc2c1c(-c1ccc3c(c1)OC(c1ccccc1)CC3)cn2[C@H]1C[C@H](CO)C1 (mixture of isomers) [Example 2, (R,S)-{Trans-3-[4-amino-5-(2-phenyl-chroman-7-yl)-pyrrolo[2,3-d]pyrimidin-7-yl]-cyclobutyl}-methanol]
39 nM	Nc1ncnc2c1c(-c1ccc3c(c1)OC(C1CCCO1)CC3)cn2[C@H]1CC[C@@H](N2CCS(=O)(=O)CC2)CC1 (mixture of isomers) [Example 65, (±)-7-[cis-4-(1,1-dioxo-1λ6-thiomorpholin-4-yl)-cyclohexyl]-5-[2-cis-(tetrahydro-furan-2-yl)chroman-7-yl]-7H-pyrrolo[2,3-d]pyrimidin-4-ylamine]
4 to 5 nM	Nc1ncnc2c1c(-c1ccc3c(c1)OC(C1CCCO1)CC3)cn2C1CC(CN2CCS(=O)(=O)CC2)C1 (single isomer, unassigned) [Example 30, (I)-7-[cis-3-(1,1-Dioxo-1-thiomorpholin-4-ylmethyl)-cyclobutyl]-5-[2-(tetrahydro-furan-2-yl)-chroman-7-yl]-7H-pyrrolo[2,3-d]pyrimidin-4-ylamine]

Source: patent publication US20120289501A1, “Benzene-fused 6-membered oxygen-containing heterocyclic derivatives of bicyclic heteroaryls” (NOVARTIS AG, priority 2009, published 2012)
